# Assay results published in article PMC10628300, “Dual function of OmpM as outer membrane tether and nutrient uptake channel in diderm Firmicutes” (Nature Communications, 2023).
# Tests used:
# [1] = biological target: VpOmpM1 (OmpM1 from Veillonella parvula), full-length, expressed in E. coli (Veillonella parvula); assay: cryo-EM structure; single particle; purified VpOmpM1 from E. coli (11.6 mg/ml) or V. parvula (8 mg/ml) in DM detergent, grids plunge-frozen at 4 °C; reconstructions without symmetry (C1) and with C3
# [2] = biological target: T1, FNLLGLLA_00518 β-barrel (OmpA-like) (Veillonella parvula, UniProt A0AB38YQ02); assay: proteoliposome swelling, decrease in A400; assay type: biochemical; conditions: diffusive transport through channel, no binding constant; much slower than VpOmpM1 and EcOmpF; 10 mM HEPES-NaOH pH 7.5, 12 mM stachyose inside
# T1 construct: gene CYJ21_000020; beta-barrel region, residues 21-200 (from plasmid name pB22-00518_21-200); TamB signal peptide and N-terminal His7; expressed in E. coli C43(DE3) delta-cyoABCD; reconstituted in liposomes
# [3] = biological target: T2, VpOmpM1 (full-length) (Veillonella parvula, UniProt A0A100YN03); assay: proteoliposome swelling, decrease in A400; assay type: biochemical; conditions: diffusive transport through general porin, no binding constant; 10 mM HEPES-NaOH pH 7.5, 12 mM stachyose inside; rates normalised to EcOmpF with arabinose
# T2 construct: gene KHZ90_07665; full-length without native signal peptide; E. coli TamB signal peptide and N-terminal His7 added (pJW46); expressed in E. coli C43(DE3) delta-cyoABCD; homotrimer; reconstituted in liposomes
# [4] = biological target: T3, EcOmpF (Escherichia coli, UniProt P02931); assay: proteoliposome swelling, decrease in A400; assay type: biochemical; conditions: diffusive transport through general porin, no binding constant, 10 mM HEPES-NaOH pH 7.5, 12 mM stachyose inside
# T3 construct: gene ompF; full-length, untagged (pBAD24-EcOmpF), expressed in E. coli BL21(DE3), purified from outer membranes; trimer; reconstituted in liposomes
# T3 sequence (P02931 23-362): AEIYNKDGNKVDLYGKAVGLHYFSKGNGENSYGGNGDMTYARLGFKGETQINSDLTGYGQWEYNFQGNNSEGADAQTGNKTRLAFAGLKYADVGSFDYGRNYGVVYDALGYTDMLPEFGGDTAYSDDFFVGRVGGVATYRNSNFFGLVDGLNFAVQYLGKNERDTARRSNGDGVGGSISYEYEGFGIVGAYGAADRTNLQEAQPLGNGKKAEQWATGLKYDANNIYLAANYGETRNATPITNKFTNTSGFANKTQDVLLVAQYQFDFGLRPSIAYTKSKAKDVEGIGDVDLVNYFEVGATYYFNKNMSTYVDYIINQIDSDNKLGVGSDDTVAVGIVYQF
# [5] = biological target: VpOmpM1 stalk construct (residues 22-107) (Veillonella parvula); assay: crystal structure; stalk construct 22-107 at ~20 mg/ml; 0.1 M citric acid pH 3.5, 2.0 M ammonium sulphate, 20 °C; three chains in the asymmetric unit
Compound,"proteoliposome swelling, decrease in A400 [2]","proteoliposome swelling, decrease in A400 [3]",also measured
"VpOmpM1 (OmpM1 from Veillonella parvula), full-length, expressed in E. coli (natural protein)",,,stoichiometry N [1]: 3
NCC(=O)O [glycine],could only transport putrescine and glycine at much slower rates than VpOmpM1 and EcOmpF,,
C[C@H](O)C(=O)O [lactate],,"VpOmpM1 could transport lactate, which is essential for V. parvula growth, and putrescine",
NCCCCN [putrescine],could only transport putrescine and glycine at much slower rates than VpOmpM1 and EcOmpF,"VpOmpM1 could transport lactate, which is essential for V. parvula growth, and putrescine","proteoliposome swelling, decrease in A400 ([4]; rates normalised to EcOmpF with arabinose): putrescine and glycine at much slower rates than VpOmpM1 and EcOmpF"
VpOmpM1 stalk construct (residues 22-107) (domain or fragment),,,stoichiometry N [5]: 3
OC1OC[C@H](O)[C@H](O)[C@H]1O (some centres unmarked) [arabinose],,,"proteoliposome swelling, decrease in A400 ([4]; reference condition to which all rates are normalised): All data were normalized to EcOmpF-containing liposome swelling in the presence of arabinose"
